In ChEMBL document CHEMBL1909294, “Translating clinical findings into knowledge in drug safety evaluation--drug induced liver injury prediction system (DILIps)” (PLoS Comput Biol, 2011):

Experiments:
[1] = system: Hepatotoxicity;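 on HepSE Combined Scores: combined hepatic side effect score as listed in the training data of the Drug Induced Liver Injury Prediction System (DILIps)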;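 on HepSE bilirubinemia: bilirubinemia hepatic side effect score drawn from the DILIps training data, a prediction system for drug-induced liver injury; call rule not given here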;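 on HepSE cholecystitis: Cholecystitis-related hepatic side effect score drawn from the DILIps (drug-induced liver injury prediction) training data set; call rule not given here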;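 on HepSE cirrhosis: cirrhosis hepatic side effect score taken from the DILIps (drug-induced liver injury prediction) training set; call rule not given here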;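 on HepSE hepatomegaly: hepatic side effect score for hepatomegaly, taken from the training set of the DILIps drug-induced liver injury prediction system; call rule not given here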;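 on HepSE liver fatty: hepatic side effect score for fatty liver, taken from the DILIps training set for predicting drug-induced liver injury; call rule not given here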
[2] = system: Hepatotoxicity; remark: listed apart in the source;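 on HepSE Combined Scores: combined hepatic side effect score as listed in the training data of the Drug Induced Liver Injury Prediction System (DILIps)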;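 on HepSE bilirubinemia: bilirubinemia hepatic side effect score drawn from the DILIps training data, a prediction system for drug-induced liver injury; call rule not given here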;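 on HepSE cholecystitis: Cholecystitis-related hepatic side effect score drawn from the DILIps (drug-induced liver injury prediction) training data set; call rule not given here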;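 on HepSE cirrhosis: cirrhosis hepatic side effect score taken from the DILIps (drug-induced liver injury prediction) training set; call rule not given here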;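 on HepSE hepatomegaly: hepatic side effect score for hepatomegaly, taken from the training set of the DILIps drug-induced liver injury prediction system; call rule not given here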;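 on HepSE liver fatty: hepatic side effect score for fatty liver, taken from the DILIps training set for predicting drug-induced liver injury; call rule not given here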
[3] = system: Hepatotoxicity; remark: listed apart in the source;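 on HepSE Combined Scores: combined hepatic side effect score as listed in the training data of the Drug Induced Liver Injury Prediction System (DILIps)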;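 on HepSE bilirubinemia: bilirubinemia hepatic side effect score drawn from the DILIps training data, a prediction system for drug-induced liver injury; call rule not given here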;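 on HepSE cholecystitis: Cholecystitis-related hepatic side effect score drawn from the DILIps (drug-induced liver injury prediction) training data set; call rule not given here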;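 on HepSE cirrhosis: cirrhosis hepatic side effect score taken from the DILIps (drug-induced liver injury prediction) training set; call rule not given here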;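 on HepSE hepatomegaly: hepatic side effect score for hepatomegaly, taken from the training set of the DILIps drug-induced liver injury prediction system; call rule not given here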;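 on HepSE liver fatty: hepatic side effect score for fatty liver, taken from the DILIps training set for predicting drug-induced liver injury; call rule not given here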
[4] = system: Hepatotoxicity; remark: listed apart in the source;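 on HepSE Combined Scores: combined hepatic side effect score as listed in the training data of the Drug Induced Liver Injury Prediction System (DILIps)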;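 on HepSE bilirubinemia: bilirubinemia hepatic side effect score drawn from the DILIps training data, a prediction system for drug-induced liver injury; call rule not given here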;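 on HepSE cholecystitis: Cholecystitis-related hepatic side effect score drawn from the DILIps (drug-induced liver injury prediction) training data set; call rule not given here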;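 on HepSE cirrhosis: cirrhosis hepatic side effect score taken from the DILIps (drug-induced liver injury prediction) training set; call rule not given here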;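 on HepSE hepatomegaly: hepatic side effect score for hepatomegaly, taken from the training set of the DILIps drug-induced liver injury prediction system; call rule not given here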;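 on HepSE liver fatty: hepatic side effect score for fatty liver, taken from the DILIps training set for predicting drug-induced liver injury; call rule not given here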
[5] = system: Hepatotoxicity; remark: listed apart in the source
[6] = system: Hepatotoxicity; remark: listed apart in the source
[7] = system: Hepatotoxicity; remark: listed apart in the source
[8] = system: Hepatotoxicity; remark: listed apart in the source
[9] = system: Hepatotoxicity; remark: listed apart in the source
[10] = system: Hepatotoxicity; remark: listed apart in the source
[11] = system: Hepatotoxicity; remark: listed apart in the source
[12] = system: Hepatotoxicity; remark: listed apart in the source
[13] = system: Hepatotoxicity; remark: listed apart in the source
[14] = system: Hepatotoxicity; remark: listed apart in the source

Row | Structure (SMILES) | HepSE_Combined Scores [1] | HepSE_hepatomegaly [2] | HepSE_cirrhosis [3] | HepSE_liver fatty [4] | HepSE_cholelithiasis [5] | HepSE_bilirubinemia [6] | HepSE_hepatic necrosis [7] | HepSE_cholecystitis [8] | HepSE_elevated liver function tests [9] | HepSE_jaundice [10] | HepSE_hepatic failure [11] | HepSE_liver disease [12] | HepSE_liver function tests abnormal [13] | HepSE_hepatitis [14] | also measured
1 | CCN(CC)CCNC(=O)c1c(C)[nH]c(/C=C2\C(=O)Nc3ccc(F)cc32)c1C [SUNITINIB] | 2 | 0 | 0 | 0 | 0 | 0 | 0 | 0 | 0 | 1 | 1 | 0 | 0 | 0 | 
2 | CC(C(=O)O)c1ccc(C(=O)c2cccs2)cc1 (configuration not stated) [SUPROFEN] | 0 | 0 | 0 | 0 | 0 | 0 | 0 | 0 | 0 | 0 | 0 | 0 | 0 | 0 | 
3 | C[N+](C)(C)CCOC(=O)CCC(=O)OCC[N+](C)(C)C [SUXAMETHONIUM] | 0 | 0 | 0 | 0 | 0 | 0 | 0 | 0 | 0 | 0 | 0 | 0 | 0 | 0 | 
4 | Nc1c2c(nc3ccccc13)CCCC2 [TACRINE] |  |  |  |  |  |  |  |  |  |  |  |  |  |  | HepSE_Combined Scores ([1]; Liver): 2; HepSE_hepatomegaly ([2]; Liver): 0; HepSE_cirrhosis ([3]; Liver): 0; HepSE_liver fatty ([4]; Liver): 0; HepSE_cholelithiasis ([5]; Liver): 1; HepSE_bilirubinemia ([6]; Liver): 0; HepSE_hepatic necrosis ([7]; Liver): 0; HepSE_cholecystitis ([8]; Liver): 1; HepSE_elevated liver function tests ([9]; Liver): 0; HepSE_jaundice ([10]; Liver): 0; HepSE_hepatic failure ([11]; Liver): 0; HepSE_liver disease ([12]; Liver): 0; HepSE_liver function tests abnormal ([13]; Liver): 0; HepSE_hepatitis ([14]; Liver): 0
5 | C=CC[C@@H]1/C=C(\C)C[C@H](C)C[C@H](OC)[C@H]2O[C@@](O)(C(=O)C(=O)N3CCCC[C@H]3C(=O)O[C@H](/C(C)=C/[C@@H]3CC[C@@H](O)[C@H](OC)C3)[C@H](C)[C@@H](O)CC1=O)[C@H](C)C[C@@H]2OC [TACROLIMUS ANHYDROUS] | 7 | 0 | 0 | 1 | 0 | 1 | 1 | 0 | 0 | 1 | 0 | 1 | 1 | 1 | 
6 | CCOc1ccccc1OCCN[C@H](C)Cc1ccc(OC)c(S(N)(=O)=O)c1 [TAMSULOSIN] | 0 | 0 | 0 | 0 | 0 | 0 | 0 | 0 | 0 | 0 | 0 | 0 | 0 | 0 | 
7 | CCOC(=O)c1ccc(C#Cc2ccc3c(c2)C(C)(C)CCS3)nc1 [TAZAROTENE] | 0 | 0 | 0 | 0 | 0 | 0 | 0 | 0 | 0 | 0 | 0 | 0 | 0 | 0 | 
8 | CCCCCNC(=N)N/N=C/c1c[nH]c2ccc(OC)cc12 [TEGASEROD] | 4 | 0 | 0 | 0 | 1 | 1 | 0 | 1 | 0 | 0 | 0 | 0 | 0 | 1 | 
9 | CC[C@H]1OC(=O)[C@H](C)C(=O)[C@H](C)[C@@H](O[C@@H]2O[C@H](C)C[C@H](N(C)C)[C@H]2O)[C@](C)(OC)C[C@@H](C)C(=O)[C@H](C)[C@H]2N(CCCCn3cnc(-c4cccnc4)c3)C(=O)O[C@]12C [TELITHROMYCIN] |  |  |  |  |  |  |  |  |  |  |  |  |  |  | HepSE_Combined Scores ([1]; Liver): 5; HepSE_hepatomegaly ([2]; Liver): 0; HepSE_cirrhosis ([3]; Liver): 0; HepSE_liver fatty ([4]; Liver): 0; HepSE_cholelithiasis ([5]; Liver): 0; HepSE_bilirubinemia ([6]; Liver): 0; HepSE_hepatic necrosis ([7]; Liver): 1; HepSE_cholecystitis ([8]; Liver): 0; HepSE_elevated liver function tests ([9]; Liver): 0; HepSE_jaundice ([10]; Liver): 1; HepSE_hepatic failure ([11]; Liver): 1; HepSE_liver disease ([12]; Liver): 0; HepSE_liver function tests abnormal ([13]; Liver): 1; HepSE_hepatitis ([14]; Liver): 1
10 | Cn1nnc2c(C(N)=O)ncn2c1=O [TEMOZOLOMIDE] | 0 | 0 | 0 | 0 | 0 | 0 | 0 | 0 | 0 | 0 | 0 | 0 | 0 | 0 | 
11 | COc1cc([C@@H]2c3cc4c(cc3[C@@H](O[C@@H]3O[C@@H]5CO[C@@H](c6cccs6)O[C@H]5[C@H](O)[C@H]3O)[C@H]3COC(=O)[C@H]23)OCO4)cc(OC)c1O [TENIPOSIDE] | 0 | 0 | 0 | 0 | 0 | 0 | 0 | 0 | 0 | 0 | 0 | 0 | 0 | 0 | 
12 | C[C@H](Cn1cnc2c(N)ncnc21)OCP(=O)(O)O [TENOFOVIR ANHYDROUS] | 2 | 0 | 0 | 1 | 0 | 0 | 0 | 0 | 0 | 0 | 0 | 0 | 0 | 1 | 
13 | COc1cc2nc(N3CCN(C(=O)C4CCCO4)CC3)nc(N)c2cc1OC (configuration not stated) [TERAZOSIN] | 1 | 0 | 0 | 0 | 0 | 0 | 0 | 0 | 0 | 1 | 0 | 0 | 0 | 0 | 
